Assay results from patent US9707265B2, “Treatment of muscular dystrophy” (The University of Sheffield, priority 2012, dated 2017).
“Also recorded” adds a separate entry of the source. Where a SMILES comes first, the peptide text is derived from it. The star is where a group is joined. Cbz = O=C(OCc1ccccc1)*

How the values were obtained:
sapje zebrafish = experiment: Rescue of the dystrophic phenotype (muscle integrity, actin:GFP) in sapje zebrafish embryos; assay type: in vivo; details: sapje embryos treated from 24 hpf; actin:GFP as marker of muscle integrity
Protocol: Zebrafish embryos were collected from group matings of heterozygous sapje ta222a (a dystrophin mutant) and homozygous for a transgene that labels all the fast muscle with GFP (actin:GFP;). At 24 hours post fertilization (hpf) embryos were dechorionated enzymatically, washed and arrayed into multiwell plates with 40 embryos per treatment (5 embryos per well). Sapje embryos are produced at normal Mendelian frequencies, so from 40 embryos we expect 10 homozygote for sapje. Compounds to be tested were added to a final concentration based on available clinical or mouse studies for EC50. All plates included negative controls. Live embryos were assayed for muscle degeneration using actin:GFP as a marker of muscle integrity in sapje fish. Fluorescent scans for GFP along the body axis of wildtype siblings or mutant fish reveal a dramatic profile of fluorescence intensity which clearly distinguished the normal muscle from damaged muscle.

β-dystroglycan [1] = experiment: Western blot analysis of β-dystroglycan and phosphorylated β-dystroglycan in sapje fish; assay type: in vivo, zebrafish; details: 1 μM MG132, western blot
Protocol: FIG. 16. Illustrates western blot analysis of β-dystroglycan (β-DG) and phosphorylated β-dystroglycan (p β-DG) in sapje fish (blue bars) and in sapje fish treated with 1 μM of the proteasomal inhibitor MG132 (purple bars).

[2] = target: T1, ubiquitin activating enzyme E1 (Homo sapiens, UniProt P22314); details: reference 51; cited from earlier work
T1 sequence (P22314 1-1058): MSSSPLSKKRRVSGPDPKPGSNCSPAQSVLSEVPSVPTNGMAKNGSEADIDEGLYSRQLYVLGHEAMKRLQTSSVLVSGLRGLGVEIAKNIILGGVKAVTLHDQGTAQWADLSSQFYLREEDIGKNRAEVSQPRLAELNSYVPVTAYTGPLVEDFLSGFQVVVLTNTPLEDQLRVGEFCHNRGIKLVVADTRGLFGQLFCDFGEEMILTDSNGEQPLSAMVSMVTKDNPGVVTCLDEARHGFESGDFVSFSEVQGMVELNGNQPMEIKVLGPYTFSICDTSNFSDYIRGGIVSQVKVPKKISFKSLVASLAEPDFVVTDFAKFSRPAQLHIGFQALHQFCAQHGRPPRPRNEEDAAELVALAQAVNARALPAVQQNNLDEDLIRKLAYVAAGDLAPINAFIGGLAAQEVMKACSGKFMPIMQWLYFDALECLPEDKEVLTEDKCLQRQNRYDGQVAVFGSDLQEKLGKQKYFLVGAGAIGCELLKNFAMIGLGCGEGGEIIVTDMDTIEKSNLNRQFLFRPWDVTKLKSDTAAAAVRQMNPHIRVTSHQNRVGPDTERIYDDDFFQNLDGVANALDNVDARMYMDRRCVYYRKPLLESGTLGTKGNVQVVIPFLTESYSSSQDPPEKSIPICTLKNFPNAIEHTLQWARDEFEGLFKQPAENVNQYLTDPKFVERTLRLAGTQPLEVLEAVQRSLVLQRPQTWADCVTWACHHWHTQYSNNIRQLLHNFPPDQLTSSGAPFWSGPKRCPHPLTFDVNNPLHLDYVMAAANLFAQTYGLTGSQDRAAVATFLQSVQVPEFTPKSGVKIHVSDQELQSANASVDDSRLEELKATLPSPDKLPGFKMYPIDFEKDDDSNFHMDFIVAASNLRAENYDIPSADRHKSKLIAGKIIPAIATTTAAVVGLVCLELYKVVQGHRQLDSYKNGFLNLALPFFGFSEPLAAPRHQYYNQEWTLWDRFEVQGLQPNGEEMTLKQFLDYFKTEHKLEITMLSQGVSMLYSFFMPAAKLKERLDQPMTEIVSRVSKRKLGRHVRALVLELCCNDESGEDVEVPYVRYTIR

mdx mouse = details: Gazzerro et al. 2010; cited from earlier work
β-dystroglycan [3] = experiment: β-dystroglycan ubiquitination after protein tyrosine phosphatase inhibition in myoblast cells expressing HA-tagged ubiquitin; assay type: cell-based; details: immunoprecipitation and western blot
Source text: Tyrosine phosphatases were inhibited in myoblast cells in vitro using peroxyvanadate and samples from cells expressing HA-tagged ubiquitin were taken for immunoprecipitation and western blot analysis. Immunoprecipitation with either the HA tag, or β-dystroglycan at various time points was followed by Western blotting for the HA epitope, β-dystroglycan or tubulin as a loading control.

For `CC(C)C[C@H](NC(=O)[C@H](CCc1ccccc1)NC(=O)CN1CCOCC1)C(=O)N[C@@H](Cc1ccccc1)C(=O)N[C@@H](CC(C)C)C(=O)[C@@]1(C)CO1` [Carfilzomib], which “effect on the dystrophic phenotype of sapje zebrafish” value (shortened to “effect on the dystrophic phenotype”) (sapje zebrafish) is on record?
The value was “dose dependent rescue”.

With `CC(C)C[C@@H](C=O)NC(=O)[C@H](CC(C)C)NC(=O)[C@H](CC(C)C)NC(=O)OCc1ccccc1` [MG132] (Cbz-Leu-Leu-Leu-aldehyde) as the compound, how does the “amount of non-phosphorylated b-dystroglycan in treated sapje fish” value (β-dystroglycan [1]) read?
Its value is “significant increase”.

And the “amount of phosphorylated b-dystroglycan in treated sapje fish” value (β-dystroglycan [1])?
The value was “significant increase”.

And the “effect on the dystrophic phenotype” value (sapje zebrafish)?
The value was “dose dependent rescue”.

With `CCOC(=O)c1ccc(N2NC(=O)/C(=C/c3ccc([N+](=O)[O-])o3)C2=O)cc1` [Pyr-41] as the compound, how does the “effect on the dystrophic phenotype” value (sapje zebrafish) read?
The value was “small but positive benefit; also recorded: dose dependent rescue”.

What about the “inhibition of ubiquitin activating enzyme E1” value [2] of the same compound?
The value was “inhibit the ubiquitin activating enzyme E1”.

With `CC(C)C[C@H](NC(=O)[C@H](Cc1ccccc1)NC(=O)c1cnccn1)B(O)O` [bortezomib] as the compound, how does the “restoration of DGC components” value (mdx mouse) read?
Its value is “restore DGC components”.

And the “effect on the dystrophic phenotype” value (sapje zebrafish)?
The value was “Qualitatively similar results; also recorded: dose dependent rescue”.

For peroxyvanadate, which “ubiquitin-β-dystroglycan bands over time course of treatment” value (β-dystroglycan [3]) is on record?
Its value is “increase in the proportion and number of ubiquitin-β-dystroglycan bands”.
